In patent US20170240513A1, “SUBSTITUTED PYRIMIDINES AS INHIBITORS OF HIF PROLYL HYDROXYLASE” (MERCK SHARP & DOHME CORP., priority 2014, published 2017):
pIC50: −log10 of the molar value.

What follows are molecules tested against T1, human HIF-PHD2 (Homo sapiens, UniProt Q9GZT9) (assay: HIF-PHD2 inhibition of HIF-1α peptide hydroxylation (time resolved fluorescence)). Settings: FLAG-tagged full length PHD2; 0.2 μM 2-oxoglutarate, 0.5 μM HIF-1α peptide.
T1 construct: FLAG-tagged full length PHD2 expressed in and purified from baculovirus-infected Sf9 cells; FLAG; made in house; host or cells: baculovirus-infected Sf9 cells
Format: biochemical
Protocol: Select examples of assays that may be used to detect favorable activity are disclosed in the following publications: Oehme, F., et al., Anal. Biochem. 330:74-80 (2004); Hirsilä, M, et al., J. Bio. Chem. 278 (33): 30772-30780 (2005); Hyunju, C., et al., Biochem. Biophys. Res. Comm. 330 275-280 (2005); and Hewitson, K. S., et al., Methods in Enzymology, (Oxygen Biology and Hypoxia); Elsevier Publisher (2007), pg. 25-42 (ISSN: 0076-6879).
To each well of a 384-well plate, 1 μL of test compounds in DMSO (final concentration ranging from 0.3 nM to 10 uM) were added into 20 μl of assay buffer (50 mM Tris pH 7.4/0.01% Tween-20/0.1 mg/ml bovine serum albumin/[…]/1 mM sodium ascorbate/20 μg/ml catalase) containing 0.15 μg/ml FLAG-tagged full length PHD2 expressed in and purified from baculovirus-infected Sf9 cells. After a 5 min preincubation at room temperature, the enzymatic reactions were initiated by the addition of 4 μL of substrates {final concentrations of 0.2 μM 2-oxoglutarate and 0.5 μM HIF-1α peptide biotinyl-DLDLEMLAPYIPMDDDFQL (SEQ ID NO: 1)}. After incubation for 45 minutes at room temperature, the reactions were terminated by the addition of a 25 μL quench/detection mix to a final concentration of 1 mM ortho-phenanthroline, 0.1 mM EDTA, 0.5 nM anti-(His)6 LANCE reagent (Perkin-Elmer Life Sciences), 100 nM AF647-labeled streptavidin (Invitrogen), and 2 μg/ml (His)6-VHL complex {S. Tan Protein Expr. Purif. 21, 224-234 (2001)} and the signals were developed for 30 minutes at room temperature. The ratio of time resolved fluorescence signals at 665 and 620 nm was determined, and percent inhibition was calculated relative to the high control samples (DMSO treated) run in parallel, after background subtraction.

T1 sequence (Q9GZT9 whole entry): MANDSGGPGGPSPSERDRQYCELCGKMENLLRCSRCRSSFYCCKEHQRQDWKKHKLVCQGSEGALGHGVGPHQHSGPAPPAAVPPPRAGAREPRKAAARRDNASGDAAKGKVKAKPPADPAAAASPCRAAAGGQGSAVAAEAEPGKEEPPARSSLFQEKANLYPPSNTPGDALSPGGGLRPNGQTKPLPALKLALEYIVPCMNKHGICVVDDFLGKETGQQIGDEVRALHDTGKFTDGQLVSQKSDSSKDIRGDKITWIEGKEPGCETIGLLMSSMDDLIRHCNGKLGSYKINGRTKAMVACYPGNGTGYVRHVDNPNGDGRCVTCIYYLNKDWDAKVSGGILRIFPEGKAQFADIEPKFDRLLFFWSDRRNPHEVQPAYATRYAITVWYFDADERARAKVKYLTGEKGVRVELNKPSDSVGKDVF

SMILES	pIC50
CCOC(=O)C1(CNC(=O)c2ncc(C(=O)NC(c3ccccc3)c3ccccc3)c(O)n2)CC1 [Ex. 3, ethyl 1-((5-(benzhydrylcarbamoyl)-4-hydroxypyrimidine-2-carboxamido)methyl)cyclopropanecarboxylate]	7.45
CCOC(=O)C(C)(O)CNC(=O)c1ncc(C(=O)NC(c2ccccc2)c2ccccc2)c(O)n1 (single isomer, unassigned) [Example 27, Ethyl 3-(5-(benzhydrylcarbamoyl)-4-hydroxypyrimidine-2-carboxamido)-2-hydroxy-2-methylpropanoate]	6.06
O=C1CN(C(=O)c2ncc(C(=O)NC(c3ccccc3)c3ccccc3)c(O)n2)CO1 [Ex. 17, N-Benzhydryl-4-hydroxy-2-(5-oxooxazolidine-3-carbonyl)pyrimidine-5-carboxamide]	7.82
CC(C)OC(=O)CCNC(=O)c1ncc(C(=O)NC(c2ccccc2)c2ccccc2)c(O)n1 [Example 6, Isopropyl 3-(5-(benzhydrylcarbamoyl)-4-hydroxypyrimidine-2-carboxamido)propanoate]	7.80
CC(=O)OCOC(=O)CCNC(=O)c1ncc(C(=O)NC(c2ccccc2)c2ccccc2)c(O)n1 [Ex. 7, Acetoxymethyl 3-(5-(benzhydrylcarbamoyl)-4-hydroxypyrimidine-2-carboxamido)propanoate]	8.51
CCOC(=O)C(C)(O)CNC(=O)c1ncc(C(=O)NC(c2ccccc2)c2ccccc2)c(O)n1 (single isomer, unassigned) [Example 26, Ethyl 3-(5-(benzhydrylcarbamoyl)-4-hydroxypyrimidine-2-carboxamido)-2-hydroxy-2-methylpropanoate]	6.03
CCOC(=O)[C@H](O)CNC(=O)c1ncc(C(=O)NC(c2ccccc2)c2ccccc2)c(O)n1 [Ex. 5, (R)-ethyl 3-(5-(benzhydrylcarbamoyl)-4-hydroxypyrimidine-2-carboxamido)-2-hydroxypropanoate]	7.33
CN(C)C(=O)COC(=O)CCNC(=O)c1ncc(C(=O)NC(c2ccccc2)c2ccccc2)c(O)n1 [Ex. 13, 2-(Dimethylamino)-2-oxoethyl 3-(5-(benzhydrylcarbamoyl)-4-hydroxypyrimidine-2-carboxamido)propanoate]	6.80
CCOC(=O)OC(C)OC(=O)CNC(=O)c1ncc(C(=O)NC(c2ccccc2)c2ccccc2)c(O)n1 (stereo not drawn) [Ex. 19, 1-((ethoxycarbonyl)oxy)ethyl 2-(5-(benzhydrylcarbamoyl)-4-hydroxypyrimidine-2-carboxamido)acetate]	7.49
CC(OC(=O)CCNC(=O)c1ncc(C(=O)NC(c2ccccc2)c2ccccc2)c(O)n1)OC(=O)OC1CCCCC1 (stereo not drawn) [Ex. 11, 1-(((cyclohexyloxy)carbonyl)oxy)ethyl 3-(5-(benzhydrylcarbamoyl)-4-hydroxypyrimidine-2-carboxamido)propanoate]	7.38
O=C(NC[C@@H](O)C(=O)OC1CCCCC1O)c1ncc(C(=O)NC(c2ccccc2)c2ccccc2)c(O)n1 (stereo partly drawn) [Ex. 25, (2R)-2-Hydroxycyclohexyl 3-(5-(benzhydrylcarbamoyl)-4-hydroxypyrimidine-2-carboxamido)-2-hydroxypropanoate]	6.74
CC(C)OC(=O)OC(C)OC(=O)CNC(=O)c1ncc(C(=O)NC(c2ccccc2)c2ccccc2)c(O)n1 (stereo not drawn) [Ex. 18, 1-((isopropoxycarbonyl)oxy)ethyl 2-(5-(benzhydrylcarbamoyl)-4-hydroxypyrimidine-2-carboxamido)acetate]	7.36
CCOC(=O)C(OC(=O)[C@H](O)CNC(=O)c1ncc(C(=O)NC(c2ccccc2)c2ccccc2)c(O)n1)c1ccccc1 (stereo partly drawn) [Ex. 24, (2R)-2-ethoxy-2-oxo-1-phenylethyl 3-(5-(benzhydrylcarbamoyl)-4-hydroxypyrimidine-2-carboxamido)-2-hydroxypropanoate]	6.49
CCOC(=O)OCOC(=O)CNC(=O)c1ncc(C(=O)NC(c2ccccc2)c2ccccc2)c(O)n1 [Ex. 22]	7.83
CC(C)OC(=O)OCOC(=O)CCNC(=O)c1ncc(C(=O)NC(c2ccccc2)c2ccccc2)c(O)n1 [Ex. 8, ((isopropoxycarbonyl)oxy)methyl 3-(5-(benzhydrylcarbamoyl)-4-hydroxypyrimidine-2-carboxamido)propanoate]	8.55
CC(OC(=O)[C@H](O)CNC(=O)c1ncc(C(=O)NC(c2ccccc2)c2ccccc2)c(O)n1)C(=O)OCc1ccccc1 (stereo partly drawn) [Ex. 23, (2R)-1-(Benzyloxy)-1-oxopropan-2-yl 3-(5-(benzhydrylcarbamoyl)-4-hydroxypyrimidine-2-carboxamido)-2-hydroxypropanoate]	7.95
O=C(CCNC(=O)c1ncc(C(=O)NC(c2ccccc2)c2ccccc2)c(O)n1)OCc1ccccc1 [Example 28]	7.61
CCOC(=O)OC(C)OC(=O)CCNC(=O)c1ncc(C(=O)NC(c2ccccc2)c2ccccc2)c(O)n1 (stereo not drawn) [Ex. 9, 1-((ethoxycarbonyl)oxy)ethyl 3-(5-(benzhydrylcarbamoyl)-4-hydroxypyrimidine-2-carboxamido)propanoate]	8.18
CN(C)C(=O)COC(=O)CNC(=O)c1ncc(C(=O)NC(c2ccccc2)c2ccccc2)c(O)n1 [Ex. 16, 2-(dimethylamino)-2-oxoethyl 2-(5-(benzhydrylcarbamoyl)-4-hydroxypyrimidine-2-carboxamido)acetate]	6.98
CCOC(=O)OCOC(=O)CCNC(=O)c1ncc(C(=O)NC(c2ccccc2)c2ccccc2)c(O)n1 [Ex. 12, ((ethoxycarbonyl)oxy)methyl 3-(5-(benzhydrylcarbamoyl)-4-hydroxypyrimidine-2-carboxamido)propanoate]	8.61
CC(C)C(=O)OCOC(=O)CNC(=O)c1ncc(C(=O)NC(c2ccccc2)c2ccccc2)c(O)n1 [Ex. 21, (2-(5-(benzhydrylcarbamoyl)-4-hydroxypyrimidine-2-carboxamido)acetoxy)methyl isobutyrate]	7.46
COC(=O)CCNC(=O)c1ncc(C(=O)NC(c2ccccc2)c2ccccc2)c(O)n1 [Ex. 1, Methyl 3-(5-(benzhydrylcarbamoyl)-4-hydroxypyrimidine-2-carboxamido)propanoate]	7.84
CC(C)OC(=O)COC(=O)C(C)CNC(=O)c1ncc(C(=O)NC(c2ccccc2)c2ccccc2)c(O)n1 (single isomer, unassigned) [Ex. 30, 2-Isopropoxy-2-oxoethyl 3-(5-(benzhydrylcarbamoyl)-4-hydroxypyrimidine-2-carboxamido)-2-methylpropanoate]	6.75
CC(C)OC(=O)COC(=O)[C@H]1C[C@H](NC(=O)c2ncc(C(=O)NC(c3ccccc3)c3ccccc3)c(O)n2)C1 [Ex. 29, (1R,3R)-2-isopropoxy-2-oxoethyl 3-(5-(benzhydrylcarbamoyl)-4-hydroxypyrimidine-2-carboxamido)cyclobutanecarboxylate]	6.77
O=C(CNC(=O)c1ncc(C(=O)NC(c2ccccc2)c2ccccc2)c(O)n1)Oc1ccc2c(c1)CCC2 [Ex. 15, 2,3-Dihydro-1H-inden-5-yl 2-(5-(benzhydrylcarbamoyl)-4-hydroxypyrimidine-2-carboxamido)acetate]	7.95
CC(C)OC(=O)OCOC(=O)CNC(=O)c1ncc(C(=O)NC(c2ccccc2)c2ccccc2)c(O)n1 [Ex. 20, ((Isopropoxycarbonyl)oxy)methyl 2-(5-(benzhydrylcarbamoyl)-4-hydroxypyrimidine-2-carboxamido)acetate]	7.39
O=C1CCN(C(=O)c2ncc(C(=O)NC(c3ccccc3)c3ccccc3)c(O)n2)CO1 [Ex. 14, N-Benzhydryl-4-hydroxy-2-(6-oxo-1,3-oxazinane-3-carbonyl)pyrimidine-5-carboxamide]	7.95
CC(C)OC(=O)OC(C)OC(=O)CCNC(=O)c1ncc(C(=O)NC(c2ccccc2)c2ccccc2)c(O)n1 (stereo not drawn) [Ex. 10, 1-((isopropoxycarbonyl)oxy)ethyl 3-(5-(benzhydrylcarbamoyl)-4-hydroxypyrimidine-2-carboxamido)propanoate]	7.43
O=C(CCNC(=O)c1ncc(C(=O)NC(c2ccccc2)c2ccccc2)c(O)n1)OCCN1CCOCC1 [Ex. 2, 2-morpholinoethyl 3-(5-(benzhydrylcarbamoyl)-4-hydroxypyrimidine-2-carboxamido)propanoate]	7.60
CCOC(=O)C(C)(O)CNC(=O)c1ncc(C(=O)NC(c2ccccc2)c2ccccc2)c(O)n1 (stereo not drawn) [Ex. 4, ethyl 3-(5-(benzhydrylcarbamoyl)-4-hydroxypyrimidine-2-carboxamido)-2-hydroxy-2-methylpropanoate]	6.06
